Source: ChEMBL document CHEMBL3352227, “Synthesis, antimycobacterial and antibacterial evaluation of l-[(1R, 2S)-2-fluorocyclopropyl]fluoroquinolone derivatives containing an oxime functional moiety” (Eur J Med Chem, 2014)
Converted amounts (≈) assume the structure as drawn.

How the values were obtained:
Klebsiella pneumoniae [1] = test: Antibacterial activity against extended-spectrum beta-lactamase producin Klebsiella pneumoniae 12-7 after 18 to 24 hrs by standard twofold serial dilution method; format: functional
Escherichia coli [2] = test: Antibacterial activity against extended-spectrum beta-lactamase producing Escherichia coli 12-15 after 18 to 24 hrs by standard twofold serial dilution method; format: functional
Klebsiella pneumoniae [3] = test: Antibacterial activity against Klebsiella pneumoniae 12-4 after 18 to 24 hrs by standard twofold serial dilution method; format: functional
Streptococcus pneumoniae [4] = test: Antibacterial activity against Streptococcus pneumoniae ATCC 49619 after 18 to 24 hrs by standard twofold serial dilution method; format: functional
Klebsiella pneumoniae [5] = test: Antibacterial activity against Klebsiella pneumoniae 12-1 infected in mouse dosed orally twice at 0 and 6 hrs after infection; format: functional; settings: 12-1, po
Klebsiella pneumoniae [6] = test: Antibacterial activity against Klebsiella pneumoniae 12-2 after 18 to 24 hrs by standard twofold serial dilution method; format: functional
Escherichia coli [7] = test: Antibacterial activity against extended-spectrum beta-lactamase producing Escherichia coli 12-2 after 18 to 24 hrs by standard twofold serial dilution method; format: functional
Klebsiella pneumoniae [8] = test: Antibacterial activity against extended-spectrum beta-lactamase producin Klebsiella pneumoniae 12-14 after 18 to 24 hrs by standard twofold serial dilution method; format: functional
Staphylococcus aureus [9] = test: Antibacterial activity against methicillin-resistant Staphylococcus aureus 12-4 after 18 to 24 hrs by standard twofold serial dilution method; format: functional
Staphylococcus aureus [10] = test: Antibacterial activity against methicillin-sensitive Staphylococcus aureus 12-1 infected in mouse dosed orally twice at 0 and 6 hrs after infection; format: functional; settings: 12-1, po
Staphylococcus aureus [11] = test: Antibacterial activity against methicillin-sensitive Staphylococcus aureus 12-5 after 18 to 24 hrs by standard twofold serial dilution method; format: functional
Streptococcus pneumoniae [12] = test: Antibacterial activity against Streptococcus pneumoniae 12-10 infected in mouse dosed orally twice at 0 and 6 hrs after infection; format: functional; settings: 12-10, po
Klebsiella pneumoniae [13] = test: Antibacterial activity against extended-spectrum beta-lactamase producin Klebsiella pneumoniae 12-4 after 18 to 24 hrs by standard twofold serial dilution method; format: functional
Escherichia coli [14] = test: Antibacterial activity against extended-spectrum beta-lactamase producing Escherichia coli 12-3 after 18 to 24 hrs by standard twofold serial dilution method; format: functional
[15] = test system: Staphylococcus epidermidis; test: Antibacterial activity against methicillin-sensitive Staphylococcus epidermidis 12-8 after 18 to 24 hrs by standard twofold serial dilution method; format: functional
Klebsiella pneumoniae [16] = test: Antibacterial activity against extended-spectrum beta-lactamase producin Klebsiella pneumoniae 12-3 after 18 to 24 hrs by standard twofold serial dilution method; format: functional
Pseudomonas aeruginosa [17] = test: Antibacterial activity against Pseudomonas aeruginosa 12-14 after 18 to 24 hrs by standard twofold serial dilution method; format: functional
Escherichia coli [18] = test: Antibacterial activity against Escherichia coli ATCC 25922 after 18 to 24 hrs by standard twofold serial dilution method; format: functional
[19] = test system: Staphylococcus epidermidis; test: Antibacterial activity against methicillin-resistant Staphylococcus epidermidis 12-1 after 18 to 24 hrs by standard twofold serial dilution method; format: functional
Pseudomonas aeruginosa [20] = test: Antibacterial activity against Pseudomonas aeruginosa 12-12 after 18 to 24 hrs by standard twofold serial dilution method; format: functional
[21] = test system: Staphylococcus epidermidis; test: Antibacterial activity against methicillin-resistant Staphylococcus epidermidis 12-1 infected in mouse dosed orally twice at 0 and 6 hrs after infection; format: functional; settings: 12-1, po
[22] = test system: Staphylococcus epidermidis; test: Antibacterial activity against methicillin-sensitive Staphylococcus epidermidis 12-6 after 18 to 24 hrs by standard twofold serial dilution method; format: functional
Escherichia coli [23] = test: Antibacterial activity against Escherichia coli 12-1 infected in mouse dosed orally twice at 0 and 6 hrs after infection; format: functional; settings: 12-1, po
Staphylococcus aureus [24] = test: Antibacterial activity against methicillin-sensitive Staphylococcus aureus 12-4 after 18 to 24 hrs by standard twofold serial dilution method; format: functional
[25] = test system: Staphylococcus epidermidis; test: Antibacterial activity against methicillin-resistant Staphylococcus epidermidis 12-6 after 18 to 24 hrs by standard twofold serial dilution method; format: functional
Staphylococcus aureus [26] = test: Antibacterial activity against methicillin-sensitive Staphylococcus aureus 12-1 after 18 to 24 hrs by standard twofold serial dilution method; format: functional
Staphylococcus aureus [27] = test: Antibacterial activity against methicillin-sensitive Staphylococcus aureus 12-2 after 18 to 24 hrs by standard twofold serial dilution method; format: functional
Streptococcus pneumoniae [28] = test: Antibacterial activity against Streptococcus pneumoniae 12-18 after 18 to 24 hrs by standard twofold serial dilution method; format: functional
[29] = Solubility of the compound; format: physicochemical
[30] = test system: Staphylococcus epidermidis; test: Antibacterial activity against methicillin-sensitive Staphylococcus epidermidis 12-3 after 18 to 24 hrs by standard twofold serial dilution method; format: functional
Staphylococcus aureus [31] = test: Antibacterial activity against methicillin-resistant Staphylococcus aureus 12-5 infected in mouse dosed orally twice at 0 and 6 hrs after infection; format: functional; settings: 12-5, po
[32] = test system: Mycobacterium tuberculosis; test: Antimycobacterial activity against Mycobacterium tuberculosis H37Rv ATCC 27294 by MABA method; format: functional
Staphylococcus aureus [33] = test: Antibacterial activity against methicillin-resistant Staphylococcus aureus 12-5 after 18 to 24 hrs by standard twofold serial dilution method; format: functional
Staphylococcus aureus [34] = test: Antibacterial activity against Staphylococcus aureus ATCC 25923 after 18 to 24 hrs by standard twofold serial dilution method; format: functional
Escherichia coli [35] = test: Antibacterial activity against extended-spectrum beta-lactamase producing Escherichia coli 12-14 after 18 to 24 hrs by standard twofold serial dilution method; format: functional
Klebsiella pneumoniae [36] = test: Antibacterial activity against Klebsiella pneumoniae 12-1 after 18 to 24 hrs by standard twofold serial dilution method; format: functional
Escherichia coli [37] = test: Antibacterial activity against Escherichia coli 12-1 after 18 to 24 hrs by standard twofold serial dilution method; format: functional
Staphylococcus aureus [38] = test: Antibacterial activity against methicillin-resistant Staphylococcus aureus 12-2 after 18 to 24 hrs by standard twofold serial dilution method; format: functional
[39] = test system: Staphylococcus epidermidis; test: Antibacterial activity against methicillin-sensitive Staphylococcus epidermidis 12-1 after 18 to 24 hrs by standard twofold serial dilution method; format: functional

CO/N=C1/CCN(c2c(F)cc3c(=O)c(C(=O)O)cn([C@@H]4C[C@@H]4F)c3c2OC)CC1N (some centres undefined)
MIC (Klebsiella pneumoniae [1]): 2 µg/mL (≈ 4.58 µM)
MIC (Escherichia coli [2]): 32 µg/mL (≈ 73.3 µM)
MIC (Klebsiella pneumoniae [3]): 0.5 µg/mL (≈ 1.15 µM)
MIC (Streptococcus pneumoniae [4]): 0.125 µg/mL (≈ 0.286 µM)
ED50 (Klebsiella pneumoniae [5]): 21.1 mg/kg
MIC (Klebsiella pneumoniae [6]): 0.5 µg/mL (≈ 1.15 µM)
MIC (Escherichia coli [7]): 32 µg/mL (≈ 73.3 µM)
MIC (Klebsiella pneumoniae [8]): 64 µg/mL (≈ 147 µM)
MIC (Staphylococcus aureus [9]): 2 µg/mL (≈ 4.58 µM)
ED50 (Staphylococcus aureus [10]): 11.4 mg/kg
MIC (Staphylococcus aureus [11]): < 0.008 µg/mL
ED50 (Streptococcus pneumoniae [12]): 25.3 mg/kg
MIC (Klebsiella pneumoniae [13]): 16 µg/mL (≈ 36.7 µM)
MIC (Escherichia coli [14]): 32 µg/mL (≈ 73.3 µM)
MIC [15]: 0.25 µg/mL (≈ 0.573 µM)
MIC (Klebsiella pneumoniae [16]): 16 µg/mL (≈ 36.7 µM)
MIC (Pseudomonas aeruginosa [17]): 4 µg/mL (≈ 9.17 µM)
MIC (Escherichia coli [18]): 0.06 µg/mL (≈ 0.137 µM)
MIC [19]: 0.5 µg/mL (≈ 1.15 µM)
MIC (Pseudomonas aeruginosa [20]): 4 µg/mL (≈ 9.17 µM)
ED50 [21]: 25.4 mg/kg
MIC [22]: < 0.008 µg/mL
ED50 (Escherichia coli [23]): 12.1 mg/kg
MIC (Staphylococcus aureus [24]): < 0.008 µg/mL
MIC [25]: 1 µg/mL (≈ 2.29 µM)
MIC (Staphylococcus aureus [26]): < 0.008 µg/mL
MIC (Staphylococcus aureus [27]): < 0.008 µg/mL
MIC (Streptococcus pneumoniae [28]): 1 µg/mL (≈ 2.29 µM)
solubility [29]: 3590 µg/mL (≈ 8230 µM)
MIC [30]: < 0.008 µg/mL
ED50 (Staphylococcus aureus [31]): 26 mg/kg
MIC [32]: 0.25 µg/mL (≈ 0.573 µM)
MIC (Staphylococcus aureus [33]): 2 µg/mL (≈ 4.58 µM)
MIC (Staphylococcus aureus [34]): 0.015 µg/mL (≈ 0.0344 µM)
MIC (Escherichia coli [35]): 16 µg/mL (≈ 36.7 µM)
MIC (Klebsiella pneumoniae [36]): 0.25 µg/mL (≈ 0.573 µM)
MIC (Escherichia coli [37]): 0.5 µg/mL (≈ 1.15 µM)
MIC (Staphylococcus aureus [38]): 2 µg/mL (≈ 4.58 µM)
MIC [39]: < 0.008 µg/mL

NCC1CN(c2nc3c(cc2F)c(=O)c(C(=O)O)cn3[C@@H]2C[C@@H]2F)C/C1=N/OCc1ccccc1 (some centres undefined)
MIC (Klebsiella pneumoniae [1]): 1 µg/mL (≈ 2.07 µM)
MIC (Escherichia coli [2]): 128 µg/mL (≈ 265 µM)
MIC (Klebsiella pneumoniae [3]): 0.06 µg/mL (≈ 0.124 µM)
MIC (Streptococcus pneumoniae [4]): 0.03 µg/mL (≈ 0.0621 µM)
MIC (Klebsiella pneumoniae [6]): 0.125 µg/mL (≈ 0.259 µM)
MIC (Escherichia coli [7]): 64 µg/mL (≈ 132 µM)
MIC (Klebsiella pneumoniae [8]): 32 µg/mL (≈ 66.2 µM)
MIC (Staphylococcus aureus [9]): 2 µg/mL (≈ 4.14 µM)
ED50 (Staphylococcus aureus [10]): 16.9 mg/kg
MIC (Staphylococcus aureus [11]): < 0.008 µg/mL
MIC (Klebsiella pneumoniae [13]): 16 µg/mL (≈ 33.1 µM)
MIC (Escherichia coli [14]): 16 µg/mL (≈ 33.1 µM)
MIC [15]: 0.125 µg/mL (≈ 0.259 µM)
MIC (Klebsiella pneumoniae [16]): 16 µg/mL (≈ 33.1 µM)
MIC (Pseudomonas aeruginosa [17]): 1 µg/mL (≈ 2.07 µM)
MIC (Escherichia coli [18]): < 0.008 µg/mL
MIC [19]: 0.25 µg/mL (≈ 0.517 µM)
MIC (Pseudomonas aeruginosa [20]): 1 µg/mL (≈ 2.07 µM)
MIC [22]: < 0.008 µg/mL
ED50 (Escherichia coli [23]): 18 mg/kg
MIC (Staphylococcus aureus [24]): < 0.008 µg/mL
MIC [25]: 2 µg/mL (≈ 4.14 µM)
MIC (Staphylococcus aureus [26]): < 0.008 µg/mL
MIC (Staphylococcus aureus [27]): < 0.008 µg/mL
MIC (Streptococcus pneumoniae [28]): 0.25 µg/mL (≈ 0.517 µM)
solubility [29]: 240 µg/mL (≈ 496 µM)
MIC [30]: < 0.008 µg/mL
MIC [32]: 0.5 µg/mL (≈ 1.03 µM)
MIC (Staphylococcus aureus [33]): 1 µg/mL (≈ 2.07 µM)
MIC (Staphylococcus aureus [34]): < 0.008 µg/mL
MIC (Escherichia coli [35]): 16 µg/mL (≈ 33.1 µM)
MIC (Klebsiella pneumoniae [36]): 0.03 µg/mL (≈ 0.0621 µM)
MIC (Escherichia coli [37]): 0.125 µg/mL (≈ 0.259 µM)
MIC (Staphylococcus aureus [38]): 1 µg/mL (≈ 2.07 µM)
MIC [39]: < 0.008 µg/mL
